In patent US9834563B2 (Merck Sharp & Dohme Corp., priority 2013, dated 2017):
pEC50: −log10 of the molar value. Counter-ions that a name gives are not always drawn.

Key:
Human GPR40 [1] = biological target: T1, Human GPR40 (Homo sapiens, UniProt O14842); experiment: FLIPR assay: agonist-induced calcium mobilization in GPR40/CHO NFAT BLA cells; format: cell-based; parameters: expressed in transfected cells; host or cells: CHO cells stably expressing NFAT BLA (beta-lactamase)
Description: (§1) Human and mouse GPR40 stable cell-lines were generated in CHO cells stably expressing NFAT BLA (Beta-lactamase). A human GPR40 stable cell-line was generated in HEK cells stably expressing the aequorin expressing reporter. The expression plasmids were transfected using lipofectamine, LIFE TECHNOLOGIES (Carlsbad, Calif.), following manufacturer's instructions. Stable cell-lines were generated following drug selection.
FLIPR (Fluorimetric Imaging Plate Reader, Molecular Devices) assays were performed to measure agonist-induced calcium mobilization of the stable clones. For the FLIPR assay, one day before assay, GPR40/CHO NFAT BLA cells were seeded into black-wall-clear-bottom 384-well plates (Costar) at 1.4×10e4 cells/20 μL medium/well. The cells were incubated with 20 μl/well of the assay buffer (HBSS, 0.1% BSA, 20 mM HEPES, 2.5 mM probenecid, pH 7.4) containing 8 μM fluo-4, AM, 0.08% pluronic acid at room temperature for 100 minutes. Fluorescence output was measured using FLIPR. Compounds were dissolved in DMSO and diluted to desired concentrations with assay buffer. 13.3 μL/well of compound solution was added. The activities of the compounds in the examples have EC50 (effective concentration of compound to afford 50% of the maximum observed fluorescence) values listed in Table I.

Human GPR40 [2] = biological target: T1, Human GPR40; experiment: Inositol phosphate turnover (IP1) assay in HEK cells stably expressing human GPR40; format: cell-based; parameters: expressed in transfected cells; details: HEK cells stably expressing human GPR40, 3H-inositol labeling, 60 min compound incubation
Protocol: as §1
The assay is performed in a 96-well format. HEK cells stably expressing human GPR40 are plated to be 60-80% confluent within 72 h. After 72 h, the plates are aspirated and the cells washed with inositol-free DMEM (ICN). The wash media is replaced with 150 μL of 3H-inositol labeling media (inositol-free media containing 0.4% human albumin or 0.4% mouse albumin, 1× pen/strep antibiotics, glutamine, 25 mM HEPES to which is added 3H-myo-inositol NEN #NET114A 1 mCi/mL, 25 Ci/mmol diluted 1:150 in loading media with a final specific radioactivity of 1 μCi/150 μL). Alternatively, the human and mouse albumin can be added after the overnight labeling step before the addition of LiCl.
The assay is typically run the next day after 18 h labeling. On the day of the assay, 5 μL of 300 mM LiCl is added to all wells and incubated at 37 degrees for 20 min. 0.75 μL of 200× compounds are added and incubated with the cells for 60 min at 37 degrees. The media is then aspirated off and the assay terminated with the addition of 60 μL 10 mM formic acid. The cells are lysed for 60 min at room temperature. 15-30 μL of lysate is mixed with 70 μL/1 mg YSi SPA beads AMERSHAM (United Kingdom) in clear bottom Isoplates. The plates are shaken for 2 h at room temperature. Beads are allowed to settle and the plates are counted in the Wallac MICROBETA instrument. The activities of the compounds in the examples have EC50 (effective concentration of compound to afford 50% of the maximum observed […]) values listed in Table I.

T1 sequence (O14842 whole entry): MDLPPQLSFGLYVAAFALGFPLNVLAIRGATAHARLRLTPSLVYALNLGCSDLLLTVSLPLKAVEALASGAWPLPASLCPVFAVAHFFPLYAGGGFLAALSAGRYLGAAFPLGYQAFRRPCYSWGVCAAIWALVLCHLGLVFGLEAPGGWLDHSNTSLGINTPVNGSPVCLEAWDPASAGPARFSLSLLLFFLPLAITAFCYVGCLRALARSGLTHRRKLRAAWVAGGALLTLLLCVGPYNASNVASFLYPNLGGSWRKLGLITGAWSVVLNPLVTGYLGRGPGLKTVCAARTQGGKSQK

Row | Structure (SMILES) | pEC50 (Human GPR40 [1]) | pEC50 (Human GPR40 [2])
1 | Cc1nc(O[C@@H]2CO[C@H]3[C@@H]2OC[C@@H]3O)ccc1-c1ccc(F)c(COc2ccc3c(c2)C[C@H]2[C@H](C(=O)O)[C@@H]32)c1 [Example 31, (1S,1aS,6aR)-4-((2-fluoro-5-(6-(((3R,3aR,6S,6aR)-6-hydroxyhexahydrofuro[3,2-b]furan-3-yl)oxy)-2-methylpyridin-3-yl)benzyl)oxy)-1,1a,6,6a-tetrahydrocyclopropa[a]indene-1-carboxylic acid] | 7.51 | 7.85
2 | Cc1cc(-c2ccc(F)c(COc3ccc4c(c3)C[C@H]3[C@H](C(=O)O)[C@@H]43)c2)c2c(cnn2C)n1 [Example 53, 7-(3-((((1S,1aS,6aR)-1-carboxy-1,1a,6,6a-tetrahydrocyclopropa[a]inden-4-yl)oxy)methyl)-4-fluorophenyl)-1,5-dimethyl-1H-pyrazolo[4,3-b]pyridin-4-ium formate] | 7.29 | 7.41
3 | Cc1cc(NCCCS(C)(=O)=O)ncc1-c1ccc(F)c(COc2ccc3c(c2)C[C@H]2[C@H](C(=O)O)[C@@H]32)c1 [Example 14, 4-{2-Fluoro-5-[6-(3-methanesulfonyl-propylamino)-4-methyl-pyridin-3-yl]-benzyloxy}-1,1a,6,6a-tetrahydro-cyclopropa[a]indene-1-carboxylic acid] | 6.84 | 7.08
4 | Cc1nc(N2CCC(O)CC2)ccc1-c1ccc(F)c(COc2ccc3c(c2)C[C@H]2[C@H](C(=O)O)[C@@H]32)c1 [Example 41, (1S,1aS,6aR)-4-((2-fluoro-5-(6-(4-hydroxypiperidin-1-yl)-2-methylpyridin-3-yl)benzyl)oxy)-1,1a,6,6a-tetrahydrocyclopropa[a]indene-1-carboxylic acid] | 7.65 | 8.22
5 | Cc1nc(OCC2(O)CCCCC2O)ccc1-c1ccc(F)c(COc2ccc3c(c2)C[C@H]2[C@H](C(=O)O)[C@@H]32)c1 (stereo partly drawn) [Example 26, (1S,1aS,6aR)-4-((5-(6-((1,2-dihydroxycyclohexyl)methoxy)-2-methylpyridin-3-yl)-2-fluorobenzyl)oxy)-1,1a,6,6a-tetrahydrocyclopropa[a]indene-1-carboxylic acid] | 7.08 | 7.59
6 | Cc1nc(N2CC(S(C)(=O)=O)C2)ccc1-c1ccc(F)c(COc2ccc3c(c2)C[C@H]2[C@H](C(=O)O)[C@@H]32)c1 [Example 51, (1S,1aS,6aR)-4-((2-fluoro-5-(2-methyl-6-(3-(methylsulfonyl)azetidin-1-yl)pyridin-3-yl)benzyl)oxy)-1,1a,6,6a-tetrahydrocyclopropa[a]indene-1-carboxylic acid] | 7.63 | 7.58
7 | Cc1c(-c2ccc(F)c(COc3ccc4c(c3)C[C@H]3[C@H](C(=O)O)[C@@H]43)c2)ccc2nc(-c3ccncc3)sc12 [Example 52, (1S,1aS,6aR)-4-((2-fluoro-5-(7-methyl-2-(pyridin-4-yl)benzo[d]thiazol-6-yl)benzyl)oxy)-1,1a,6,6a-tetrahydrocyclopropa[a]indene-1-carboxylic acid] | 7.45 | 7.52
8 | Cc1nc(N2CCC(c3ccccc3)CC2)nc(C)c1-c1ccc(F)c(COc2ccc3c(c2)C[C@H]2[C@H](C(=O)O)[C@@H]32)c1F [Example 45, (1S,1aS,6aR)-4-((3-(4,6-dimethyl-2-(4-phenylpiperidin-1-yl)pyrimidin-5-yl)-2,6-difluorobenzyl)oxy)-1,1a,6,6a-tetrahydrocyclopropa[a]indene-1-carboxylic acid] | 7.53 | 6.07
9 | Cc1nc(OC2CCS(=O)(=O)CC2)ccc1-c1ccc(F)c(C(C)Oc2ccc3c(c2)C[C@H]2[C@H](C(=O)O)[C@@H]32)c1 (stereo partly drawn) [Example 35, (1S,1aS,6aR)-4-(1-(5-(6-((1,1-dioxidotetrahydro-2H-thiopyran-4-yl)oxy)-2-methyl-pyridin-3-yl)-2-fluorophenyl)ethoxy)-1,1a,6,6a-tetrahydrocyclo-propa[a]indene-1-carboxylic acid] | 7.11 | 5.86
10 | CS(=O)(=O)CCCOc1ncc(-c2ccc(F)c(COc3ccc4c(c3)C[C@H]3[C@H](C(=O)O)[C@@H]43)c2)cc1C(F)(F)F [Example 54, (1S,1aS,6aR)-4-((2-Fluoro-5-(6-(3-(methylsulfonyl)propoxy)-5-(trifluoromethyl)pyridin-3-yl)benzyl)oxy)-1,1a,6,6a-tetrahydrocyclopropa[a]indene-1-carboxylic acid] | 7.29 | 6.63
11 | Cc1nc(N2CCC(CS(C)(=O)=O)CC2)ccc1-c1ccc(F)c(COc2ccc3c(c2)C[C@H]2[C@H](C(=O)O)[C@@H]32)c1 [Example 50, (1S,1aS,6aR)-4-((2-fluoro-5-(2-methyl-6-(4-((methylsulfonyl)methyl)piperidin-1-yl)pyridine-3-yl)benzyl)oxy)-1,1a,6,6a-tetrahydrocyclopropa[a]indene-1-carboxylic acid] | 7.24 | 7.57
12 | Cc1nc(N2CCC(C#N)(c3ccccc3)CC2)nc(C)c1-c1ccc(F)c(COc2ccc3c(c2)C[C@H]2[C@H](C(=O)O)[C@@H]32)c1F [Example 46, (1S,1aS,6aR)-4-((3-(2-(4-cyano-4-phenylpiperidin-1-yl)-4,6-dimethylpyrimidin-5-yl)-2,6-difluorobenzyl)oxy)-1,1a,6,6a-tetrahydrocyclopropa[a]indene-1-carboxylic acid] | 7.41 | 6.20
13 | Cc1nc(OC2CCS(=O)(=O)CC2)ccc1-c1ccc(F)c(COc2ccc3c(c2)C[C@H]2[C@H](C(=O)O)[C@@H]32)c1 [Example 2, (1S,1aS,6aR)-4-[(5-{6-[(1,1-dioxidotetrahydro-2H-thiopyran-4-yl)oxy]-2-methylpyridin-3-yl)-2-fluorobenzyl]oxy}-1,1a,6,6a-tetrahydrocyclopropa[a]indene-1-carboxylic acid] | 7.15 | 7.73
14 | O=C(O)[C@H]1[C@@H]2Cc3cc(OCc4cc(-c5cnc6[nH]ccc6c5)ccc4F)ccc3[C@@H]21 [Example 24, (1S,1aS,6aR)-4-((2-fluoro-5-(1H-pyrrolo[2,3-b]pyridin-5-yl)benzyl)oxy)-1,1a,6,6a-tetrahydrocyclopropa[a]indene-1-carboxylic acid] | 7.13 | 6.52
15 | Cc1nc(N2[C@@H]3CC[C@H]2CC(O)C3)ccc1-c1ccc(F)c(COc2ccc3c(c2)C[C@H]2[C@H](C(=O)O)[C@@H]32)c1 (stereo partly drawn) [Example 39, (1S,1aS,6aR)-4-((2-fluoro-5-(6-((1R,5S)-3-hydroxy-8-azabicyclo[3.2.1]octan-8-yl)-2-methylpyridin-3-yl)benzyl)oxy)-1,1a,6,6a-tetrahydrocyclopropa[a]indene-1-carboxylic acid] | 7.32 | 7.59
16 | Cc1nc(NCCCS(C)(=O)=O)ccc1-c1ccc(F)c(COc2ccc3c(c2)C[C@H]2[C@H](C(=O)O)[C@@H]32)c1 [Example 11, 4-{2-Fluoro-5-[6-(3-methanesulfonyl-propylamino)-2-methyl-pyridin-3-yl]-benzyloxy}-1,1a,6,6a-tetrahydro-cyclopropa[a]indene-1-carboxylic acid] | 7.25 | 7.36
17 | Cc1nc(N2CCC(C)(O)CC2)ccc1-c1ccc(F)c(COc2ccc3c(c2)C[C@H]2[C@H](C(=O)O)[C@@H]32)c1 [Example 43, (1S,1aS,6aR)-4-((2-fluoro-5-(6-(4-hydroxy-4-methylpiperidin-1-yl)-2-methylpyridin-3-yl)benzyl)oxy)-1,1a,6,6a-tetrahydrocyclopropa[a]indene-1-carboxylic acid] | 7.12 | 7.89
18 | Cc1cc(OCCCS(C)(=O)=O)nc(C)c1-c1cccc(COc2ccc3c(c2)C[C@H]2[C@H](C(=O)O)[C@@H]32)c1 [Example 4, (1S,1aS,6aR)-4-[(3-{2,4-dimethyl-6-[3-(methylsulfonyl)propoxy]pyridin-3-yl}benzyl)oxy]-1,1a,6,6a-tetrahydrocyclopropa[a]indene-1-carboxylic acid] | 7.05 | 7.82
